Laboratory results: patent EP1096932B1, “ANTIHYPERTENSIVE COMBINATION OF VALSARTAN AND CALCIUM CHANNEL BLOCKER” (Novartis Pharma AG, priority 1998, dated 2000)

Test system: diabetic SHRs
Experiment: Survival of streptozotocin-diabetic SHRs under drug treatment
Type: in vivo, spontaneously hypertensive rats (SHR)
Details: twice daily gavage
From the text: In diabetic SHRs the presence of hypertension is an important determinant of renal injury, manifesting in functional changes such as albuminuria and in ultrastructural injury. For example, diabetic SHRs show ventricular hypertrophy and develop nephropathy resulting in sudden death events. Accordingly, the use of this animal model is well-applied in the art and suitable for evaluating effects of drugs on the development of diabetic renal diseases. There is a strong need to achieve a significant increase of the survival rate by treatment of hypertension in diabetes especially in NIDDM. It is known that CCBs are not considered as first line antihypertensives e.g. in NIDDM treatment. Though some kind of reduction of blood pressure may be achieved with CCBs, they may not be indicated for the treatment of renal disorders associated with diabetes.
Diabetes is induced in SHRs aged about 6 to 8 weeks weighing about 250 to 300 g by treatment e.g. with streptozotocin. The drugs are administered by twice daily gavage. Untreated diabetic SHRs are used as control group (group 1). […] On a regular basis, besides other parameters the survival rate after 21 weeks of treatment is being monitored. In week 21 of the study, following survival rates have been determined: […]

COc1ccc(CCN(C)CCCC(C#N)(c2ccc(OC)c(OC)c2)C(C)C)cc1OC (centres unmarked) [verapamil]
Survival Rate (20 mg/kg of verapamil, week 21 (group 3)): 42.9%

CCCCC(=O)N(Cc1ccc(-c2ccccc2-c2nnn[nH]2)cc1)[C@H](C(=O)O)C(C)C [valsartan, (S)-N-(1-carboxy-2-methyl-prop-1-yl)-N-pentanoyl-N-[2'(1H-tetrazol-5-yl)biphenyl-4-yl-methyl]amine]
Survival Rate (30 mg/kg of valsartan, week 21 (group 2)): 45.9%
